Where two headings read alike, the source gives them in different places. Values belong to the compound of their own block, whether it stands above or below them.
Legend:
E. coli strain 1A1 = test: Broth dilution assay (antibiotic assay), growth at 600 nm after 24 h; type: cell-based
Method: (§1) To determine if the antibacterial activity of 5 was due to pH effects, an additional broth dilution assay was performed using sodium hydroxide as a positive control.
E. coli strain 1A1 [43] was obtained from the microbial strain repository at the Joint Bioenergy Institute at Lawrence Berkeley National Laboratory. A 10 mL culture in Luria Broth (LB) media was grown for 18 h at 37 °C with shaking at 200 rpm. The culture was then diluted into LB media to an absorbance of 0.05 at 600 nm, and added into the wells of a 96-well plate (first row = 190 µL, all other wells = 100 µL/well). Approximately 700 mg of IL was dissolved into 1 mL of methanol, and 10 µL of each IL solution was added to first row wells of the plate. A twofold serial dilution was performed down the plate by mixing and transferring 100 µL using a multi-channel pipette. To maintain isochoric conditions, 100 µL was discarded from bottommost wells. The plate was then incubated at 37 °C with shaking at 150 rpm. After 24 h incubation, E. coli growth was quantified at 600 nm using an Epoch Microplate Spectrophotometer (Gen5 software). […] All experiments were repeated 3–7 times and error bars in Fig. 5 represent standard deviation. Statistical F-test was performed to determine the appropriate t-test (i.e., equal or unequal variance) to analyze significant difference between IC50 data.

[1] = pH of LB media at the IC50 concentration; type: physicochemical; conditions: at IC50 against E. coli
Method: as §1

Daphnia magna = test: 48-h acute toxicity study on D. magna; type: in vivo; conditions: for IC50: Daphnia magna, 48 h, read-out: IC50 against D. magna
Method: Procedures for cultivating and performing acute toxicity assays with D. magna generally followed the US EPA protocol. Daphnia magna was cultured from stocks supplied by Aquatic Bio Systems Inc. (Fort Collins, CO). The organisms were cultured in 900-mL jars filled with moderately hard water from the recipe: 0.473 g CaSO4, 0.959 g NaHCO3, 1.223 g MgSO4·7H2O, and 0.039 g KCl per 10 L of deionized water. 2 mL of algae (Selenastrum capriconutum) containing 3.0 × 10^7 cells/mL were fed to D. magna on both Tuesdays and Thursdays with water changes as well as feedings on Saturdays. All glass jars were placed in a Thermo Scientific Precision incubator (Fischer Scientific, Hampton, NH) at a holding temperature of 20 °C and on a 12 h:12 h light:dark cycle. This procedure was conducted approximately a month prior to the beginning of the project. To prepare D. magna for use in acute experiments, three hundred adult daphnids were separated into five 1-L beakers with 60 daphnids each. These daphnids were used a week later in the experiment. All daphnid cultures followed the same protocol for feeding and water changes as mentioned previously.
A 48-h acute toxicity study was carried out to examine the toxic effects of 11 and 12 on D. magna, Glass jars were filled with moderately hard water and spiked with the appropriate concentration of IL from stock solution to a total volume of 50 mL. For each IL, 5 different concentrations were studied. Control jars were set up with only 50 mL of moderately hard water. Four replicates were used for each concentration and each replicate had four daphnids. The daphnids were placed into glass jars for each concentration of ILs. All glass jars were placed in a Thermo Scientific Precision incubator (Fischer Scientific, Hampton, NH) at a holding temperature of 20 °C and on a 12 h:12 h light:dark cycle. Mortality in each jar was recorded every 24 h.

[2] = E. coli strain 1A1, LB media, 24 h, 37 °C, read-out: IC50 (concentration of IL required to decrease bacterial growth by 50%)
[3] = Escherichia coli, 1A1, 24 h, E. coli strain 1A1, LB media, 24 h, 37 °C, read-out: IC50 (concentration of IL required to decrease bacterial growth by 50%)

SMILES: CCCC[N+](CCCC)(CCCC)CCCC [Compound 2, Tetrabutylammonium acetate]
IC50 (E. coli strain 1A1; Escherichia coli, 1A1, 24 h, read-out: IC50 (concentration of IL required to decrease bacterial growth by 50%), E. coli strain 1A1, LB media, 24 h, 37 °C): 13.2 ± 2.9 mM

SMILES: CCCC[N+](CCCC)(CCCC)CCCC [Compound 3, tetrabutylammonium bromide, reference compound]
IC50 (E. coli strain 1A1; read-out: IC50 (concentration of IL required to decrease bacterial growth by 50%), E. coli strain 1A1, LB media, 24 h, 37 °C): 10 ± 1.3 mM

SMILES: C[N+](C)(C)Cc1ccccc1 [Compound 4, Benzyltrimethylammonium acetate]
IC50 (E. coli strain 1A1; [2]): 47.8 ± 0.6 mM

SMILES: C[N+](C)(C)Cc1ccccc1 [Compound 5, benzyltrimethylammonium hydroxide, reference compound]
IC50 (E. coli strain 1A1; [2]): 10.4 ± 0.3 mM
pH of LB media at the IC50 concentration [1]: 8.5

SMILES: COc1ccc(C[N+](C)(C)C)cc1 [Compound 6]
IC50 (E. coli strain 1A1; [3]): 11.6 ± 1.7 mM

SMILES: COc1cc(C[N+](C)(C)C)cc(OC)c1OC [Compound 7]
IC50 (E. coli strain 1A1; [3]): 22.2 ± 0.8 mM

SMILES: COc1ccc(C[N+](C)(C)C)cc1OC [Compound 8]
IC50 (E. coli strain 1A1; [3]): 48.2 ± 3.3 mM

IC50 (E. coli strain 1A1; [3]): 19.6 ± 0.4 mM
SMILES: CC[N+](C)(CC)Cc1ccc(OC)c(OC)c1 [Compound 9, N-(3,4-Dimethoxybenzyl)-N-ethyl-N-methylethanaminium acetate]

IC50 (E. coli strain 1A1; [3]): 17.7 ± 0.9 mM
SMILES: CCC[N+](C)(CCC)Cc1ccc(OC)c(OC)c1 [Compound 10, N-(3,4-Dimethoxybenzyl)-N-methyl-N-propylpropan-1-ammonium acetate]

SMILES: COc1ccc(C[N+](C)(C)C)cc1OC [Compound 11]
fold reduction of toxicity of the methanesulfonate compared with the acetate anion (8) (E. coli strain 1A1; E. coli, vanillin-derived N,N,N-trimethyl cation): 1.6 fold
IC50 (E. coli strain 1A1; Escherichia coli, 1A1, 24 h, read-out: IC50 (concentration of IL required to decrease bacterial growth by 50%)): 78.7 ± 2.5 mM
fold by which IC50 against D. magna is lower than IC50 against E. coli (Daphnia magna; 0.319 mM vs 78.7 mM): approximately 250 fold
IC50 (Daphnia magna): 319 ± 66 µM

SMILES: COc1cc(C[N+](C)(C)C)cc(OC)c1OC [Compound 12]
fold more toxic to D. magna than vanillin-derived IL 11 (Daphnia magna; 48-h acute toxicity): 2.6 fold
IC50 (Daphnia magna): 123 ± 12 µM

IC50 (E. coli strain 1A1; [2]): 25.5 mM
pH of LB media at the IC50 concentration [1]: 9.4
SMILES: [Na+].[OH-] [NaOH, sodium hydroxide, reference compound]

Source: publication PMC7900799, “Synthesis, antibiotic structure–activity relationships, and cellulose dissolution studies of new room-temperature ionic liquids derived from lignin” (Biotechnology for Biofuels, 2021)
